Measured values reported in US20020002294A1, “Estrogenic compounds as antiangiogenic agents” (priority 1997, published 2002).

Legend:
[1] = system: Melanoma cell lines; assay: Human Tumor Cell Panel Assay in vitro, melanoma panel; assay type: cell-based; design: key: Most sensitive cell panes are marked with ✓
From the text: (§1) The tubulin activities, breast cancer cell line activities, and the cell panels most sensitive to selected analogs are shown in Tables 3 and 4.

[2] = system: CNS cell lines; assay: Human Tumor Cell Panel Assay in vitro, CNS panel; assay type: cell-based; design: key: Most sensitive cell panes are marked with ✓
From the text: as §1

[3] = system: MDA-MB-435 estrogen receptor-negative human breast carcinoma cells; assay: In Vivo Tumor Growth Inhibition; design: species or system SCID mice
Description: To determine the antitumor activity of 2-ME and derivatives, SCID mice were s.c. inoculated with 10^6 MDA-MB-435 estrogen receptor-negative human breast carcinoma cells. Treatment was initiated on day 12 when tumor volumes reached 75-100 mm3 in volume. Drugs were suspended in 0.5 g/100 ml of carboxymethylcellulose with sterile glass beads, vortexed for 5 minutes, and administered p.o. in a volume of 0.1 ml. Control mice received 0.1 ml of carboxymethylcellulose p.o. Serial caliper measurements of perpendicular diameters were used to calculate tumor volume using the following: (shortest diameter)^2×(longest diameter)×0.52. T/C was calculated as the volume of treated tumors over the volume of control tumors. A smaller number indicates a greater inhibition of tumor growth.

[4] = system: 8 human breast cancer cell lines; assay: human tumor cell panel assay in vitro, breast panel; assay type: cell-based; design: key to Most Sensitive Cell Lines in Human Tumor Cell Panel Assay: Breast: Most sensitive cell panes are marked with ✓; conditions: for Most Sensitive Cell Lines in Human Tumor Cell Panel Assay: Breast: 8 cell lines, only MCF-7 and T-47D express estrogen and progesterone receptors
From the text: as §1

[5] = biological target: T1, rat uterine cytosolic estrogen receptor (Rattus norvegicus, UniProt P06211); assay: Relative Binding Affinity to estrogen receptor; conditions: at 0°; 3H-Estradiol=100
T1 construct: from tissue; host or cells: rat uterine cytosol (per the result head)
T1 sequence (P06211 1-600): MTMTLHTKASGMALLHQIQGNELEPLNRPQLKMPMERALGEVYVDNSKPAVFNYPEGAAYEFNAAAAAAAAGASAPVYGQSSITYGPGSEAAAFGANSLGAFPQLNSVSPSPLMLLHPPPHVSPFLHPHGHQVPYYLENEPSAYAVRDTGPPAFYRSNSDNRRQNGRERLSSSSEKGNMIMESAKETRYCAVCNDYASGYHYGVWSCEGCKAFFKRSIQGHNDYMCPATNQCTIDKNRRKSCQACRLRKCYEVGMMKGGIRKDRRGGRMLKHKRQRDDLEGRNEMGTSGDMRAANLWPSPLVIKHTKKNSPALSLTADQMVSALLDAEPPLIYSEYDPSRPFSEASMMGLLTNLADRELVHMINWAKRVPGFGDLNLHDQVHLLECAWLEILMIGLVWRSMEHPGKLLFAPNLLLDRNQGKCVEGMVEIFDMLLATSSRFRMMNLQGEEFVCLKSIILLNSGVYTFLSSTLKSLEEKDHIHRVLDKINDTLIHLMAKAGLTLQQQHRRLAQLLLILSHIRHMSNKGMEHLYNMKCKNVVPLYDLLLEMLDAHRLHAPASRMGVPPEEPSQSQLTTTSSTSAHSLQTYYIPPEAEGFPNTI
From the text: as §1

[6] = system: Renal cell lines; assay: Human Tumor Cell Panel Assay in vitro, renal panel; assay type: cell-based; design: key: Most sensitive cell panes are marked with ✓
From the text: as §1

[7] = system: Ovarian cell lines (especially OVCAR-3); assay: Human Tumor Cell Panel Assay in vitro, ovarian panel; assay type: cell-based; design: key: Most sensitive cell panes are marked with ✓
From the text: as §1

[8] = system: tubulin; assay: tubulin activities of 2-ME analogs (Table 3); assay type: biochemical
[9] = system: tubulin; assay: inhibition of tubulin polymerization in vitro (turbidity at 350 nm); assay type: biochemical; conditions: read-out: IC50 (concentration required to inhibit tubulin polymerization by 50%); mean ± S.D.; method of Example 1
Description: Anti-mitotic activity can be evaluated by testing the ability of an estradiol derivative to inhibit tubulin polymerization and microtubule assembly in vitro. Microtubule assembly is followed in a Gilford recording spectrophotometer (model 250 or 2400S) equipped with electronic temperature controllers. A reaction mixture (all concentrations refer to a final reaction volume of […]) contains 1.0 M monosodium glutamate (ph 6.6), 1. omg/ml (10 μM) tubulin, 1.0 mM MgCl2, 4% (v/v) dimethylsulfoxide and 20-75μM of a composition to be tested. The 0.24 ml reaction mixtures are incubated for 15 min. at 37° C. and then chilled on ice. After addition of 10p1 2.5mM GTP, the reaction mixture is transferred to a cuvette at 0° C., and a baseline established. At time zero, the temperature controller of the spectrophotometer is set at 37° C. Microtubule assembly is evaluated by increased turbity at 350 nm.
A. Each reaction mixture (all concentrations refer to the final reaction volume of 0.25 ml) contained 1.0 M monosodium glutamate (pH 6.6), 1.0 mg/ml (10 μM) tubulin, 1.0 mM MgCl2, 4% (v/v) dimethylsulfoxide, and either 0 (curve 1), 20μM (curve 2), 40 μM (curve 3), or 75 μM (curve 4) 2-methoxyestradiol. The 0.24 ml reaction mixtures were incubated for 15 min. at 37° C and chilled on ice. After addition of 10 μl of 2.5 mM GTP the reaction mixtures were transferred to cuvettes held at 0° C., and baselines were established. At time zero the temperature controller was set at 37° C. At the times indicated by the vertical dashed lines the temperature controller was set at the indicated temperatures.
B. Each reaction mixture contained 0.8 M monosodium glutamate (pH 6.6), 1.2 mg/ml (12 μM) tubulin, 4% (v/v) dimethylsulfoxide, and either 0 (curve 1), 1.0 FM (curve 2), 2.0 ,M (curve 3), 3.0 μM (curve 4), or 4.0 μM (curve 5) 2-methoxyestradiol. The 0.24 ml reaction mixtures were incubated for 15 min. at 26° C. and chilled on ice. After addition of 10μl of 10 mM GTP the reaction mixtures were transferred to cuvettes held at 0° C., and baselines were established. At time zero the temperature controller was set at 26° C. At the time indicated by vertical dashed line the temperature controller was set at 0° C.
The method is given in Example 1.
S.D., standard deviation.

[10] = system: tubulin; assay: inhibition of [3H]colchicine binding to tubulin; conditions: 100 μM inhibitor, 1.0 μM tubulin, 2 μM [3H]colchicine, 10 min at 37° C.; ± S.D.
Description: Incubation was for 10 min. at 37° C.
Incubation was for 10 mi. at 37° C. Average values obtained in three independent experiments are presented in the table, except for 2-methoxyestrone, which was only examined twice. S.D., standard deviation.

[11] = system: corneal neovascularization; assay: Mouse Corneal Micropocket Assay; assay type: in vivo, mice; conditions: 150 mg/kg, daily oral, 5 days
Description: Five- to 7-week-old SCID female mice were obtained from Massachusetts General Hospital (Boston, Mass.), Immunocompetent 7-9-week-old female C57BL/6 mice were obtained from ARCH Technical Services, Children's Hospital (Boston, Mass.). All animal studies were conducted according to protocols approved by the Animal Ethics Committee of Children's Hospital. Animals were anesthetized in a methoxyflurane (Pittman-Moore, Mundelein, Ill.) chamber prior to all procedures and were observed until fully recovered. Animals were sacrificed by a lethal dose of methoxyflurane.
Mouse Corneal Micropocket Assay To study the effect of microtubule inhibitors on angiogenesis in vivo, a model of angiogenesis in the mouse cornea was used in […] mice as described previously (Kenyon, B. B., Voest, E. E., Chen, C. C., Folkman, J., and D'Amato, R. J. A model of angiogenesis in the mouse cornea. Invest. Ophthalmol. & Visual Sci., 76: 1625-1632, 1996). In brief, after animals were anesthetized, corneal micropockets were created in both eyes with a modified von Graefe cataract knife. Into each pocket, a 0.4 mm ×0.4 mm×0.2 mm sucrose aluminum sulfate (Bukh Meditee, Copenhagen, Denmark) pellet coated with hydron polymer type NCC (IHN Sciences, New Brunswick, N.J.) containing 80 ng of bFGF or 160 ng of human recombinant […] (gift from Reprogenesis, Cambridge, Mass.) was implanted 1.0-1.2 mm from the limbal vessels (bFGF experiments) or 0.5-0.7 mm from the limbus (VEGF experiments). Erythromycin ointment (E. Fougera, Melville, N.Y.) was applied to each operated eye. The sucralfate acts to stabilize the growth factor and to slow its release from the hydron. Before testing each drug in this assay, we found the maximal dose that could be administered daily for 5 consecutive days without producing signs of toxicity (i.e., no hair loss, diarrhea, infection, lethargy, or weight loss). The treated groups received daily oral administration for 5 consecutive days of the stated dosage of 2-ME or a derivative thereof suspended in 0.5 g/100 ml of carboxymethylcellulose.
Treatment was started on the day of pellet implantation. […] For this purpose, the eyes of the mice were examined by slit-lamp biomicroscopy. Area of corneal neovascularization was calculated using a modified formula for a half-ellipse: Area (mm^2)=[π×clock hours×length (mm)×0.2 mm]. This formula provides the most accurate approximation of the area of neovascularization that grows toward the pellet. (Kenyon, B. B., Voest, E. E., Chen, C. C., Folkman, J., and D'Amato, R. J. A model of angiogenesis in the mouse cornea. Invest. Ophthalmol. & Visual Sci., 76: 1625-1632, 1996).

Row | Compound | Most Sensitive Cell Lines in Human Tumor Cell Panel Assay: Melanoma [1] | Most Sensitive Cell Lines in Human Tumor Cell Panel Assay: CNS [2] | Most Sensitive Cell Lines in Human Tumor Cell Panel Assay: Breast [4] | RBA, Relative Binding Affinity to rat uterine cytosolic estrogen receptor [5] | Most Sensitive Cell Lines in Human Tumor Cell Panel Assay: Renal [6] | Most Sensitive Cell Lines in Human Tumor Cell Panel Assay: Ovarian [7] | IC50 [8] [nM] | IC50 [9] [nM] | Percentage Inhibition of colchicine binding to tubulin [10] [%] | inhibition in corneal pocket assay [11] [%] | also measured
1 | CCOc1cc2c(cc1O)C(=NO)CC1C2CCC2(C)C(O)CCC12 (stereo not shown) [NSC 680185] | ✓ | ✓ | ✓ | <0.001 | ✓ | ✓ | – | – | – | – | T/C (volume of treated tumors over volume of control tumors) ([3]; 150 mg/kg p.o., duration not stated): 0.9
2 | CCNc1cc2c(cc1O)CCC1C2CCC2(C)C(O)CCC12 (stereo not shown) [NSC 673652] | – | – | – | 0.35 | – | – | ~2000 | – | – | – | IC50 ([4]; Homo sapiens, cell panel assay in vitro, two values per cell separated by /, read-out: Tumor Panel: Average log IC50(Molar) against 8 human breast cancer cell lines (converted)): 2000 nM; Tumor Panel: Average log IC50(Molar) against 8 human breast cancer cell lines ([4]; cell panel assay in vitro, two values per cell separated by /): −5.7/−5.7 log Molar
3 | C#CC1(O)CCC2C3CCc4cc(O)ccc4C3CCC21C (stereo not shown) [17-Ethynylestradiol, reference compound] | – | – | – | – | – | – | – | 10000 ± 2000 | 50 ± 7 | – | –
4 | C[C@]12CC[C@@H]3c4cc(OCC(F)(F)F)c(O)cc4/C(=N/O)C[C@H]3[C@@H]1CC[C@@H]2O [NSC 681683] | ✓ | ✓ | ✓ | <0.0074 | – | ✓ | 500 | – | – | 22 | tumor growth inhibition, comparison in words (FIG. 4) ([3]; FIG. 4): performed approximately as well as the derivative 681684
5 | CCOc1cc2c(cc1O)C(=NOC)CC1C2CCC2(C)C(O)CCC12 (stereo not shown) [NSC 683125] | ✓ | – | ✓ | <0.001 | ✓ | – | – | – | – | 23 | –
6 | COc1cc2c(cc1O)CCC1C2CCC2(C)C(=O)CCC12 (stereo not shown) [2-Methoxyestrone, reference compound] | – | – | – | – | – | – | – | 8800 ± 1000 | 57 ± 6 | – | –
